Legend:
Type in all cases: in vivo
[1] = system: barnyardgrass (Echinochloa crus-galli); experiment: Test A preemergence, barnyardgrass; details: Preemergence; for Plant response rating, Barnyardgrass: 0 to 100 scale (0 no effect, 100 complete control); for Barnyardgrass plant response rating: 125 g ai/ha, visual injury on 0 to 100 scale (0 no effect, 100 complete control), approximately 10 days
Outline: (§1)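 Pots: loam soil/sand blend. Pre: directed soil spray at planting. Post: plants 2–10 cm, 1–2 leaf stage. Formulation: non-phytotoxic solvent + surfactant.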

[2] = system: ragweed (common ragweed, Ambrosia artemisiifolia); experiment: Test A preemergence, ragweed; details: Preemergence; for Plant response rating, Ragweed: 0 to 100 scale (0 no effect, 100 complete control); for Ragweed plant response rating: 125 g ai/ha, visual injury on 0 to 100 scale (0 no effect, 100 complete control), approximately 10 days
Outline: as §1

[3] = system: Foxtail, Giant (giant foxtail, Setaria faberi); experiment: Test A preemergence, Foxtail, Giant; details: Preemergence; for Plant response rating, Foxtail, Giant: 0 to 100 scale (0 no effect, 100 complete control); for Foxtail, Giant plant response rating: 125 g ai/ha, visual injury on 0 to 100 scale (0 no effect, 100 complete control), approximately 10 days
Outline: as §1

[4] = system: blackgrass (Alopecurus myosuroides); experiment: Test A postemergence, blackgrass; details: Postemergence, 0 to 100 scale (0 no effect, 100 complete control); for Blackgrass plant response rating: 500 g ai/ha, visual injury vs untreated controls after approx. 10 days
Outline: as §1

[5] = system: Ryegrass, Italian (Italian ryegrass, Lolium multiflorum); experiment: Test A preemergence, Ryegrass, Italian; details: Preemergence; for Plant response rating, Ryegrass, Italian: 0 to 100 scale (0 no effect, 100 complete control); for Ryegrass, Italian plant response rating: 125 g ai/ha, visual injury on 0 to 100 scale (0 no effect, 100 complete control), approximately 10 days
Outline: as §1

[6] = system: corn (Zea mays); experiment: Test A postemergence, corn; details: Postemergence; for Corn plant response rating: 500 g ai/ha, visual injury vs untreated controls after approx. 10 days
Outline: as §1

[7] = system: galium (catchweed bedstraw, Galium aparine); experiment: Test A postemergence, galium; details: Postemergence; for Galium plant response rating: 500 g ai/ha, visual injury vs untreated controls after approx. 10 days
Outline: (§2)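 Postemergence ratings come from foliar sprays onto one- to two-leaf plants of 2 to 10 cm grown in loam/sand; preemergence ratings come from a directed spray onto the soil of newly seeded pots. Formulation was a surfactant-containing non-phytotoxic solvent blend.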

[8] = system: pigweed (Amaranthus retroflexus); experiment: Test A postemergence, pigweed; details: Postemergence; for Pigweed plant response rating: 500 g ai/ha, visual injury vs untreated controls after approx. 10 days
Outline: as §1

[9] = system: barnyardgrass (Echinochloa crus-galli); experiment: Test A postemergence, barnyardgrass; details: Postemergence, 0 to 100 scale (0 no effect, 100 complete control); for Barnyardgrass plant response rating: 500 g ai/ha, visual injury vs untreated controls after approx. 10 days
Outline: as §2

[10] = system: Ryegrass, Italian (Italian ryegrass, Lolium multiflorum); experiment: Test A postemergence, Ryegrass, Italian; details: Postemergence; for Ryegrass, Italian plant response rating: 500 g ai/ha, visual injury vs untreated controls after approx. 10 days
Outline: as §1

[11] = system: kochia (Bassia scoparia); experiment: Test A preemergence, kochia; details: Preemergence; for Plant response rating, Kochia: 0 to 100 scale (0 no effect, 100 complete control); for Kochia plant response rating: 125 g ai/ha, visual injury on 0 to 100 scale (0 no effect, 100 complete control), approximately 10 days
Outline: as §1

[12] = system: pigweed (Amaranthus retroflexus); experiment: Test A preemergence, pigweed; details: for Plant response rating, Pigweed: 0 to 100 scale (0 no effect, 100 complete control); for Pigweed plant response rating: 125 g ai/ha, visual injury on 0 to 100 scale (0 no effect, 100 complete control), approximately 10 days
Outline: as §2

[13] = system: kochia (Bassia scoparia); experiment: Test A postemergence, kochia; details: Postemergence; for Kochia plant response rating: 500 g ai/ha, visual injury vs untreated controls after approx. 10 days
Outline: as §1

[14] = system: ragweed (common ragweed, Ambrosia artemisiifolia); experiment: Test A postemergence, ragweed; details: Postemergence; for Ragweed plant response rating: 500 g ai/ha, visual injury vs untreated controls after approx. 10 days
Outline: as §1

[15] = system: Foxtail, Giant (giant foxtail, Setaria faberi); experiment: Test A postemergence, Foxtail, Giant; details: Postemergence; for Foxtail, Giant plant response rating: 500 g ai/ha, visual injury vs untreated controls after approx. 10 days
Outline: as §1

[16] = system: wheat (Triticum aestivum); experiment: Test A postemergence, wheat; details: Postemergence; for Wheat plant response rating: 500 g ai/ha, visual injury vs untreated controls after approx. 10 days
Outline: as §2

[17] = 31 g ai/ha, visual injury, approx. 10 days
[18] = 125 g ai/ha, visual injury approx. 10 days
[19] = 31 g ai/ha, visual injury on 0 to 100 scale (0 no effect, 100 complete control), approx. 10 days
[20] = 125 g ai/ha, visual injury approx. 10 days, 0 to 100 scale (0 no effect, 100 complete control)
[21] = 0 to 100 scale (0 no effect, 100 complete control)
[22] = 125 g ai/ha, 0 to 100 scale (0 no effect, 100 complete control)

Compound | Barnyardgrass plant response rating [1] | Ragweed plant response rating [2] | Foxtail, Giant plant response rating [3] | Plant response rating, Blackgrass [4, 18] | Ryegrass, Italian plant response rating [5] | Plant response rating, Corn [6, 20] | Plant response rating, Galium [7, 20] | Plant response rating, Barnyardgrass [9, 18] | Kochia plant response rating [11] | Pigweed plant response rating [12] | Plant response rating, Kochia [13, 20] | Plant response rating, Foxtail, Giant [15, 20] | Plant response rating, Barnyardgrass ([1]; 500 g ai/ha) | Plant response rating, Ragweed ([2]; 500 g ai/ha) | Plant response rating, Foxtail, Giant ([3]; 500 g ai/ha) | Blackgrass plant response rating [4] | Plant response rating, Ryegrass, Italian ([5]; 500 g ai/ha) | Corn plant response rating [6, 21] | Galium plant response rating [7, 21] | Plant response rating, Pigweed [8, 22] | further results
Cc1cc(C)c(C2=NOC3CCCCC23)cc1NS(=O)(=O)C(F)(F)F (stereo not drawn) [Compound 131] | 90 | 40 | 100 | 0 | 80 | 20 | 90 | 80 | 40 | 90 | 60 | 10 | – | – | – | – | – | – | – | – | Plant response rating, Barnyardgrass [1, 17]: 70; Plant response rating, Ragweed [2, 17]: 0; Plant response rating, Foxtail, Giant [3, 17]: 90; Plant response rating, Blackgrass ([4]; 31 g ai/ha): 20; Plant response rating, Ryegrass, Italian [5, 17]: 30; Plant response rating, Corn [6, 19]: 0; Plant response rating, Galium [7, 19]: 60; Plant response rating, Pigweed [8, 19]: 50; Plant response rating, Barnyardgrass ([9]; 31 g ai/ha): 20; Plant response rating, Ryegrass, Italian [10, 19]: 0; Plant response rating, Kochia [11, 17]: 30; Plant response rating, Pigweed [12, 17]: 30; Plant response rating, Kochia [13, 19]: 40; Plant response rating, Ragweed [14, 19]: 30; Plant response rating, Foxtail, Giant [15, 19]: 0; Plant response rating, Wheat [16, 19]: 0
Cc1cc(C(F)(F)F)c(NS(=O)(=O)C(F)(F)F)cc1C(=O)N(C)C [Compound 132] | 60 | 80 | 30 | 0 | 80 | 0 | 70 | 0 | 0 | 100 | 20 | 20 | 100 | 90 | 90 | 0 | 100 | 20 | 90 | 70 | Pigweed plant response rating [8, 21]: 90; Barnyardgrass plant response rating [9]: 40; Plant response rating, Ryegrass, Italian [10, 22]: 0; Ryegrass, Italian plant response rating [10, 21]: 40; Plant response rating, Kochia ([11]; 500 g ai/ha): 70; Plant response rating, Pigweed ([12]; 500 g ai/ha): 100; Kochia plant response rating [13, 21]: 20; Plant response rating, Ragweed [14, 22]: 60; Ragweed plant response rating [14, 21]: 90; Foxtail, Giant plant response rating [15, 21]: 40; Plant response rating, Wheat [16, 22]: 40; Wheat plant response rating [16, 21]: 0
Cc1cc(C(F)(F)F)c(C(=O)N(C)C)cc1NS(=O)(=O)C(F)(F)F [Compound 133] | 30 | 20 | 10 | 0 | 20 | 10 | 80 | 0 | 0 | 30 | 20 | 0 | 90 | 90 | 90 | 0 | 90 | 10 | 90 | 60 | Pigweed plant response rating [8, 21]: 90; Barnyardgrass plant response rating [9]: 10; Plant response rating, Ryegrass, Italian [10, 22]: 30; Ryegrass, Italian plant response rating [10, 21]: 40; Plant response rating, Kochia ([11]; 500 g ai/ha): 0; Plant response rating, Pigweed ([12]; 500 g ai/ha): 90; Kochia plant response rating [13, 21]: 20; Plant response rating, Ragweed [14, 22]: 90; Ragweed plant response rating [14, 21]: 80; Foxtail, Giant plant response rating [15, 21]: 10; Plant response rating, Wheat [16, 22]: 0; Wheat plant response rating [16, 21]: 50
Cc1cc(C#N)c(C(=O)N(C)C)cc1NS(=O)(=O)C(F)(F)F [Compound 134] | 0 | 10 | 40 | 0 | 20 | 0 | 50 | 0 | 0 | 80 | 40 | 0 | 40 | 30 | 100 | 0 | 90 | 0 | 80 | 50 | Pigweed plant response rating [8, 21]: 90; Barnyardgrass plant response rating [9]: 10; Plant response rating, Ryegrass, Italian [10, 22]: 0; Ryegrass, Italian plant response rating [10, 21]: 0; Plant response rating, Kochia ([11]; 500 g ai/ha): 0; Plant response rating, Pigweed ([12]; 500 g ai/ha): 90; Kochia plant response rating [13, 21]: 70; Plant response rating, Ragweed [14, 22]: 70; Ragweed plant response rating [14, 21]: 40; Foxtail, Giant plant response rating [15, 21]: 10; Plant response rating, Wheat [16, 22]: 0; Wheat plant response rating [16, 21]: 0
Cc1cc(C)c(C2=NOC3(CCC4(CC3)OCCO4)C2)cc1NS(=O)(=O)C(F)(F)F [Compound 135] | 100 | 10 | 100 | 20 | 100 | 0 | 90 | 80 | 80 | 60 | 50 | 90 | 100 | 80 | 100 | 60 | 100 | 80 | 90 | 80 | Pigweed plant response rating [8, 21]: 70; Barnyardgrass plant response rating [9]: 90; Plant response rating, Ryegrass, Italian [10, 22]: 0; Ryegrass, Italian plant response rating [10, 21]: 80; Plant response rating, Kochia ([11]; 500 g ai/ha): 100; Plant response rating, Pigweed ([12]; 500 g ai/ha): 100; Kochia plant response rating [13, 21]: 70; Plant response rating, Ragweed [14, 22]: 20; Ragweed plant response rating [14, 21]: 80; Foxtail, Giant plant response rating [15, 21]: 90; Plant response rating, Wheat [16, 22]: 0; Wheat plant response rating [16, 21]: 70

— US20230278972A1, “SUBSTITUTED HALOALKYL SULFONANILIDE HERBICIDES” (FMC Corporation, priority 2020, published 2023)
